This data set in a line: Miscibility of pheromones with corn oil or triethylcitrate. The format is physicochemical. An excerpt: Miscibility of the active ingredient and diluents were further examined by forming mixtures of various active ingredients (pheromones) with corn oil or triethylcitrate. The final composition of the mixture produced was 40 vol. % pheromones and 60 vol. % diluent (i.e., corn oil or triethyl citrate). The individual pheromones evaluated were: tomato pinworm, pink bollworm, leafroller, oriental fruitmoth, and coddling moth.

`C/C=C/C=C/CCCCCCCO` [coddling moth]: the “Dissolution in both corn oil and triethyl citrate” value (pheromone solid at room temperature) was “dissolved freely”. Under “room temperature, 40 vol. % pheromones/60 vol. % diluent”, the “Miscibility in corn oil or triethylcitrate” value is listed as “completely miscible”.

(Values after patent US20030124167A1, “Pest controlling” (priority 1999, published 2003).)
